# Measurements reported in patent publication US20230057071A1 (NOVARTIS AG, priority 2019, published 2023).
# What was measured:
# [1] = system: rodent and cynomolgus monkey TGF-β; assay: Species cross-reactivity of NIS793; assay type: binding
# [2] = system: AML PDX model HAMLX5343 (KRASG12D, WT1, PTPN11); assay type: in vivo
# Protocol: Initial group size: 4 animals. […] All final data were recorded on day 56.
# (§1) The activity of MBG453 with and without decitabine was evaluated in two AML patient-derived xenograft (PDX) models, HAMLX21432 and HAMLX5343. Decitabine (TCI America) was formulated in dextrose 5% in water (D5W) freshly prior to each dose and administered daily for 5 days. It was administered at 10 mL/kg intraperitoneal (i.p.), for a final dose […]. MBG453 was formulated to a final concentration of 1 mg/mL in PBS. It was administered weekly at a volume of 10 mL/kg, i.p., for a final dose of 10 mg/kg, with treatment initiating on dosing day 6, 24 hours after the final dose of decitabine.
# [3] = cited from earlier work
# [4] = system: AML PDX model HAMLX21432 (IDH1R132H); assay type: in vivo
# Protocol: MBG453 was administered i.p. at 10 mg/kg, once weekly (starting at day 6 of dosing) either as a single agent or in combination with decitabine i.p. at 1 mg/kg, once daily for a total of 5 doses (from initiation of dosing). Initial group size: 4 animals. […] All final data were recorded on day 56. Leukemic burden was measured as a percentage of human CD45+ cells in peripheral blood by FACS analysis.
# as §1
# Treatments were initiated on the day of randomization and continued for 21 days.
# IL-1 signaling = conditions: mouse model of disease; cited from earlier work
# [5] = target: T1, TIM-3/Galectin-9 interaction (Homo sapiens, UniProt Q8TDQ0); assay: Plate-based (MesoScale) competition assay of the TIM-3/Galectin-9 interaction; assay type: binding; conditions: serial dilutions of antibody; labeled Galectin-9 100 nM
# T1 construct: purchased R&D Systems
# Protocol: FIG. 1 is a graph depicting the impact of MBG453 on the interaction between TIM3 and galectin-9. Competition was assessed as a measure of the ability of the antibody to block Gal9-SULFOTag signal to TIM-3 receptor, which is shown on the Y-axis. Concentration of the antibody is shown on the X-axis.
# TIM-3 fusion protein (R&D Systems) was coated on a standard MesoScale 96 well plate (Meso Scale Discovery) at 2 μg/ml in PBS (Phosphate Buffered Saline) and incubated for six hours at room temperature. The plate was washed three times with PBST (PBS buffer containing 0.05% Tween-20) and blocked with PBS containing 5% Probumin (Millipore) overnight at 4° C. After incubation, the plate was washed three times with PBST and unlabeled antibody (F38-2E2 (BioLegend); MBG453; MBG453 F(ab′)2; MBG453 F(ab); or control recombinant human Galectin-9 protein) diluted in Assay Diluent (2% Probumin, 0.1% Tween-20, 0.1% Triton X-100 (Sigma) with 10% StabilGuard (SurModics)), was added in serial dilutions to the plate and incubated for one hour on an orbital shaker at room temperature. […] The plate was again washed three times with PBST, and Read Buffer T (1×) was added to the plate. The plate was read on MA600 Imager, and competition was assessed as a measure of the ability of the antibody to block Gal9-SULFOTag signal to TIM-3 receptor.
# [6] = system: THP-1 cells engineered to overexpress TIM-3; assay: T cell-mediated killing of TIM-3-overexpressing versus parental THP-1 cells (co-culture, flow cytometry); assay type: cell-based, human; conditions: 25 μg/ml; 3 days co-culture; anti-CD3/anti-CD28 beads
# Protocol: The ratio between TIM-3-expressing THP-1 cells and parental THP-1 cells (“fold” in y-axis of graph) was calculated and normalized to conditions without anti-CD3/anti-CD28 bead stimulation. The x-axis of the graph denotes the stimulation amount as number of beads per cell. Data represents one of two independent experiments.
# THP-1 cells express TIM-3 mRNA but low to no TIM-3 protein on the cell surface. […] TIM-3 Flag-tagged THP-1 cells were labeled with 2 μM CFSE (Thermo Fisher Scientific), and THP-1 parental cells were labeled with 2 μM CTV (Thermo Fisher Scientific), according to manufacturer instructions. Co-culture assays were performed in 96-well round-bottom plates. […] Cells were then detected and counted by flow cytometry. The ratio between TIM-3-expressing THP-1 cells and parental THP-1 cells (“fold” in y-axis of graph) was calculated and normalized to conditions without anti-CD3/anti-CD28 bead stimulation. […]
# [7] = single agent, 1 mg/kg i.p. daily x5
compound,measurement,setting,value
NIS793: fully human IgG2 monoclonal antibody that specifically binds and neutralizes TGF-beta 1 and 2 ligands,cross-reactivity with rodent and cynomolgus monkey TGF-β,[1],cross-reacts
"Nc1ncn([C@H]2C[C@H](O)[C@@H](CO)O2)c(=O)n1 [decitabine, 4-amino-1-(2-deoxy-beta-D-erythro-pentofuranosyl)-1,3,5-triazin-2(1H)-one]","leukemic burden, hCD45+ cells","[2]; group average, day 53 post-implant or day 21 post-treatment start",1%
same,anti-tumor activity,[2]; [7],significant anti-tumor activity
same,response,[3]; 21 patients with myelofibrosis,7 of 19
same,Grade 3/4 neutropenia,[3]; myelofibrosis cohort,95 % of patients
same,Grade 3/4 thrombocytopenia,[3]; myelofibrosis cohort,52 % of patients
same,"leukemic burden, hCD45+ cells in circulation",[4]; day 56 post-implantation,66%
same,"leukemic burden, hCD45+ cells in peripheral blood","[4]; group average, day 49 post-implant or day 14 post-treatment start, decitabine 1 mg/kg i.p. daily x5, MBG453 10 mg/kg i.p. weekly",51%
same,anti-tumor activity,[4]; [7],moderate anti-tumor activity
anakinra: recombinant IL-1 receptor antagonist (IL-1Ra),BM MSC frequency,IL-1 signaling,increased
same,platelet counts,IL-1 signaling,reduced
MBG453 F(ab′)2: F(ab′)2 fragment of MBG453,block of the interaction between TIM-3 and Galectin-9 (Gal9-SULFOTag signal to TIM-3),[5],partially blocked
MBG453 F(ab): F(ab) fragment of MBG453,T cell-mediated killing of TIM-3-overexpressing THP-1 cells relative to parental THP-1 cells,[6],not
same,block of the interaction between TIM-3 and Galectin-9 (Gal9-SULFOTag signal to TIM-3),[5],partially blocked
